From patent US8877769B2, “Heteroaryl-substituted urea modulators of fatty acid amide hydrolase” (Janssen Pharmaceutica NV, priority 2008, dated 2014)

Columns and labels:
Rat FAAH = target: T1, Rat FAAH (Rattus norvegicus, UniProt P97612); assay: Assay Method 2: FAAH assay, 3H-anandamide hydrolysis in cell homogenate; type: biochemical; settings: average of results obtained, > value = solubility limit or highest concentration tested
T1 construct: expressed in transfected cells
T1 sequence (P97612 1-579): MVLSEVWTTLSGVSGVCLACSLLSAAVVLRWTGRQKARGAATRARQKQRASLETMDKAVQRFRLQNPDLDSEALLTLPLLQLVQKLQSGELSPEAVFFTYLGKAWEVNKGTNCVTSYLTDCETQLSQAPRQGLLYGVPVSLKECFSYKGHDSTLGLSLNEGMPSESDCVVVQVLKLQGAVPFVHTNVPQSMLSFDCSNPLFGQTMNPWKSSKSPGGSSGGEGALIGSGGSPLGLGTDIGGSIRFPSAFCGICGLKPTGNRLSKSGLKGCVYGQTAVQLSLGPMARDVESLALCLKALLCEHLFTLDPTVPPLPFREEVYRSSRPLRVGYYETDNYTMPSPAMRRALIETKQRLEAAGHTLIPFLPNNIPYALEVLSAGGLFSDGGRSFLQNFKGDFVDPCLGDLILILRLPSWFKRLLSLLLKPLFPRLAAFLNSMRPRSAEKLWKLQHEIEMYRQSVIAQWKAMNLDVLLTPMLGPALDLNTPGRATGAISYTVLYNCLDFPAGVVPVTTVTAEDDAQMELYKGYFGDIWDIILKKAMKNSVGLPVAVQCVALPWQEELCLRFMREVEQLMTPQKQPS
Procedure: A. Transfection of Cells with Rat FAAH
The assay mixture consisted of 50 μL of the cell homogenate, 10 μL of the test compound, and 40 μL of anandamide [1-^3H-ethanolamine] (^3H-AEA, Perkin-Elmer, 10.3 Ci/mmol), which was added last, for a final tracer concentration of 80 nM. The reaction mixture was incubated at rt for 1 h. During the incubation, 96-well Multiscreen filter plates (catalog number MAFCNOB50; Millipore, Bedford, Mass., USA) were loaded with 25 μL of activated charcoal (Multiscreen column loader, catalog number MACL09625, Millipore) and washed once with 100 μL of MeOH. […] After the 1 h incubation, 60 μL of the reaction mixture were transferred to the charcoal plates, which were then assembled on top of the DYNEX plates using Centrifuge Alignment Frames (catalog number MACF09604, Millipore). The unbound labeled ethanolamine was centrifuged through to the bottom plate (5 min at 2000 rpm), which was preloaded with the scintillant, as described above. The plates were sealed and left at rt for 1 h before counting on a Hewlett Packard TopCount.

FAAH = target: T2, FAAH (Homo sapiens, UniProt O00519); assay: Assay Method 1: FAAH assay, 3H-anandamide hydrolysis in cell homogenate
T2 sequence (O00519 1-579): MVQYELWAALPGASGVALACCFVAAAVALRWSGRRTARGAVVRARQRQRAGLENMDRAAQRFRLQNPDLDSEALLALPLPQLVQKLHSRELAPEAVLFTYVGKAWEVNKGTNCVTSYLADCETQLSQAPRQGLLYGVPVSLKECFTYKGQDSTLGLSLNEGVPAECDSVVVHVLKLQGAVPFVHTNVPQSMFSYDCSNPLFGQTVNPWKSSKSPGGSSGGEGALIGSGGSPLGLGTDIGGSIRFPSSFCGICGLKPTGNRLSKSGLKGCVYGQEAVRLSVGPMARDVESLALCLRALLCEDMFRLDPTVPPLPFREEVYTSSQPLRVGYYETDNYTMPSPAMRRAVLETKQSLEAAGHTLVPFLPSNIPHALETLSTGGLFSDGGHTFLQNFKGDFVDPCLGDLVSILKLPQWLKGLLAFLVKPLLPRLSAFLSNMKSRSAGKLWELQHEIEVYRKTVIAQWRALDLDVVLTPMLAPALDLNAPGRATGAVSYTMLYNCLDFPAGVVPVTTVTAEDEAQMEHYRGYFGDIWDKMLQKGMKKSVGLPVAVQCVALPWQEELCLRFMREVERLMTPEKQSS

IC50 (Rat FAAH)	IC50 (FAAH)	Compound
100 nM	200 nM	O=C(Nc1noc2ncccc12)N1CCN(Cc2cccc(Oc3ccc(OC(F)(F)F)cc3)c2)CC1 [Example 37, 4-[3-(4-Trifluoromethoxy-phenoxy)-benzyl]-piperazine-1-carboxylic acid isoxazolo[5,4-b]pyridin-3-ylamide]
11 nM	6 nM	O=C(Nc1noc2cnccc12)N1CCN(Cc2ccc3c(c2)OC(F)(F)O3)CC1 [Example 39, 4-(2,2-Difluoro-benzo[1,3]dioxol-5-ylmethyl)-piperazine-1-carboxylic acid isoxazolo[5,4-c]pyridin-3-ylamide]
220 nM	2000 nM	O=C(Nc1noc2cccnc12)N1CCN(Cc2ccc3c(c2)OC(F)(F)O3)CC1 [Example 42, 4-(2,2-Difluoro-benzo[1,3]dioxol-5-ylmethyl)-piperazine-1-carboxylic acid isoxazolo[4,5-b]pyridin-3-ylamide]
112 nM	250 nM	O=C(Nc1noc2cccnc12)N1CCN(Cc2ccc(Cl)c(Cl)c2)CC1 [Example 43, 4-(3,4-Dichloro-benzyl)-piperazine-1-carboxylic acid isoxazolo[4,5-b]pyridin-3-ylamide]
9 nM	16 nM	O=C(Nc1cnc2[nH]ccc2c1)N1CCN(Cc2ccc3c(c2)OC(F)(F)O3)CC1 [Example 44, 4-(2,2-Difluoro-benzo[1,3]dioxol-5-ylmethyl)-piperazine-1-carboxylic acid (1H-pyrrolo[2,3-b]pyridin-5-yl)-amide]
230 nM	230 nM	O=C(Nc1cnc2cc[nH]c2c1)N1CCN(Cc2ccc3c(c2)OC(F)(F)O3)CC1 [Example 45, 4-(2,2-Difluoro-benzo[1,3]dioxol-5-ylmethyl)-piperazine-1-carboxylic acid (1H-pyrrolo[3,2-b]pyridin-6-yl)-amide]
7000 nM	27 nM	O=C(Nc1ccc2ncoc2c1)N1CCN(Cc2cccc(Oc3ccc(Cl)cc3)c2)CC1 [Example 46, 4-[3-(4-Chloro-phenoxy)-benzyl]-piperazine-1-carboxylic acid benzooxazol-6-ylamide]
3000 nM	2000 nM	O=C(Nc1ccc2ncoc2c1)N1CCN(Cc2ccc3c(c2)OC(F)(F)O3)CC1 [Example 47, 4-(2,2-Difluoro-benzo[1,3]dioxol-5-ylmethyl)-piperazine-1-carboxylic acid benzooxazol-6-ylamide]
> 10000 nM	> 10000 nM	O=C(Nc1ccc2nccn2c1)N1CCN(Cc2ccc3c(c2)OC(F)(F)O3)CC1 [Example 51, 4-(2,2-Difluoro-benzo[1,3]dioxol-5-ylmethyl)-piperazine-1-carboxylic acid imidazo[1,2-a]pyridin-6-ylamide]
120 nM	1300 nM	O=C(Nc1cccn2ccnc12)N1CCN(Cc2ccc(OC(F)(F)F)c(Cl)c2)CC1 [Example 53, 4-(3-Chloro-4-trifluoromethoxy-benzyl)-piperazine-1-carboxylic acid imidazo[1,2-a]pyridin-8-ylamide]
350 nM	6000 nM	O=C(Nc1cccn2ccnc12)N1CCN(Cc2ccc3c(c2)OC(F)(F)O3)CC1 [Example 54, 4-(2,2-Difluoro-benzo[1,3]dioxol-5-ylmethyl)-piperazine-1-carboxylic acid imidazo[1,2-a]pyridin-8-ylamide]
> 10000 nM	> 10000 nM	O=C(Nc1cn2ccccc2n1)N1CCN(Cc2cccc(Oc3ccc(Cl)cc3)c2)CC1 [Example 55, 4-[3-(4-Chloro-phenoxy)-benzyl]-piperazine-1-carboxylic acid imidazo[1,2-a]pyridin-2-ylamide]
> 10000 nM	> 10000 nM	O=C(Nc1cn2ccccc2n1)N1CCN(Cc2ccc(OC(F)(F)F)c(Cl)c2)CC1 [Example 56, 4-(3-Chloro-4-trifluoromethoxy-benzyl)-piperazine-1-carboxylic acid imidazo[1,2-a]pyridin-2-ylamide]
2000 nM	2000 nM	O=C(NC1=NS(=O)(=O)c2ccccc21)N1CCN(Cc2cccc(Oc3ccc(Cl)cc3)c2)CC1 [Example 59, 4-[3-(4-Chloro-phenoxy)-benzyl]-piperazine-1-carboxylic acid (1,1-dioxo-1H-λ^6-benzo[d]isothiazol-3-yl)-amide]
6000 nM	1000 nM	O=C(Nc1ccnc2[nH]ccc12)N1CCN(Cc2cccc(Oc3ccc(Cl)cc3)c2)CC1 [Example 61, 4-[3-(4-Chloro-phenoxy)-benzyl]-piperazine-1-carboxylic acid (1H-pyrrolo[2,3-b]pyridin-4-yl)-amide]
4000 nM	220 nM	CC(C)n1ncc2cc(NC(=O)N3CCN(Cc4cccc(Oc5ccc(Cl)cc5)c4)CC3)cnc21 [Example 62, 4-[3-(4-Chloro-phenoxy)-benzyl]-piperazine-1-carboxylic acid (1-isopropyl-1H-pyrazolo[3,4-b]pyridin-5-yl)-amide]
95 nM	26 nM	Cc1nn(C)c2ncc(NC(=O)N3CCN(Cc4cccc(Oc5ccc(Cl)cc5)c4)CC3)cc12 [Example 64, 4-[3-(4-Chloro-phenoxy)-benzyl]-piperazine-1-carboxylic acid (1,3-dimethyl-1H-pyrazolo[3,4-b]pyridin-5-yl)-amide]
28 nM	50 nM	Cn1cc2c(NC(=O)N3CCN(Cc4cccc(Oc5ccc(Cl)cc5)c4)CC3)cccc2n1 [Example 65, 4-[3-(4-Chloro-phenoxy)-benzyl]-piperazine-1-carboxylic acid (2-methyl-2H-indazol-4-yl)-amide]
> 10000 nM	> 10000 nM	O=C(Nc1nc2ccccc2o1)N1CCN(Cc2ccc(OC(F)(F)F)c(Cl)c2)CC1 [Example 67, 4-(3-Chloro-4-trifluoromethoxy-benzyl)-piperazine-1-carboxylic acid benzooxazol-2-ylamide]
> 10000 nM	> 10000 nM	O=C(Nc1nc2ccccc2o1)N1CCN(Cc2ccc3c(c2)OC(F)(F)O3)CC1 [Example 68, 4-(2,2-Difluoro-benzo[1,3]dioxol-5-ylmethyl)-piperazine-1-carboxylic acid benzooxazol-2-ylamide]
38 nM	67 nM	O=C(Nc1cccc2nccn12)N1CCN(Cc2ccc(OC(F)(F)F)c(Cl)c2)CC1 [Example 70, 4-(3-Chloro-4-trifluoromethoxy-benzyl)-piperazine-1-carboxylic acid imidazo[1,2-a]pyridin-5-ylamide]
140 nM	140 nM	O=C(Nc1cccc2nccn12)N1CCN(Cc2ccc3c(c2)OC(F)(F)O3)CC1 [Example 71, 4-(2,2-Difluoro-benzo[1,3]dioxol-5-ylmethyl)-piperazine-1-carboxylic acid imidazo[1,2-a]pyridin-5-ylamide]
1600 nM	1400 nM	O=C(Nc1ccn2ccnc2c1)N1CCN(Cc2ccc3c(c2)OC(F)(F)O3)CC1 [Example 73, 4-(2,2-Difluoro-benzo[1,3]dioxol-5-ylmethyl)-piperazine-1-carboxylic acid imidazo[1,2-a]pyridin-7-ylamide]
2000 nM	48 nM	N#Cc1cccnc1Oc1cccc(CN2CCN(C(=O)Nc3cnc4[nH]ccc4c3)CC2)c1 [Example 77, 4-[3-(3-Cyano-pyridin-2-yloxy)-benzyl]-piperazine-1-carboxylic acid (1H-pyrrolo[2,3-b]pyridin-5-yl)-amide]
5000 nM	84 nM	N#Cc1ccnc(Oc2cccc(CN3CCN(C(=O)Nc4cnc5[nH]ccc5c4)CC3)c2)c1 [Example 78, 4-[3-(4-Cyano-pyridin-2-yloxy)-benzyl]-piperazine-1-carboxylic acid (1H-pyrrolo[2,3-b]pyridin-5-yl)-amide]
